What was measured:
Format in all cases: cell-based, human
[1] = test system: healthy control iMN lines; experiment: iMN survival assay in healthy control lines; conditions: 1 μM, 3 weeks, five healthy control lines
Procedure: (§1) Daily imaging was performed to collect data at multiple time points over ˜2 weeks, and then analysis of the data enabled single cell longitudinal tracking during the progressive stages of cell death. The hazard ratio (hR) derived from the Cox model is used to indicate the survival rate of neurons, where a ratio greater than 1 indicates a negative association with survival. A P value is also calculated, which functions as a statistical test of the two hazard functions using the Wald test. In addition, a standard deviation, which replicates the hR value, and survival curves are calculated and graphed. […]
(§2) Induced neuron survival assay: Hb9::RFP^+iMNs appeared between days 13-16 after retroviral transduction. […] Neurons were scored as dead when their soma was no longer detectable by RFP fluorescence. All neuron survival assays were performed at least twice, with equal numbers of neurons from three individual replicates from one of the trials being used for the quantification shown. All trials quantified were representative of other trials of the same experiment. […]

sporadic ALS (sALS) iMNs = experiment: iMN survival assay in sporadic ALS lines; conditions: screen hits
Procedure: as §1, §2

C9-ALS iMN lines = experiment: iMN survival assay (longitudinal tracking, hazard ratio vs DMSO) in C9-ALS lines; conditions: 3 μM, 2 weeks, media change every 3 days, three C9-ALS iMN lines
Procedure: as §1, §2

ALS patient iMNs = experiment: iMN survival assay in ALS patient motor neurons (line type not specified); conditions: hR vs DMSO
Procedure: as §1, §2

| Structure (SMILES) | iMN survival, treatment vs DMSO group [1] | potency among hit compounds efficacious against sporadic ALS patient iMNs (sporadic ALS (sALS) iMNs) | iMN survival, hazard ratio of treatment vs DMSO (C9-ALS iMN lines) | performance in patient motor neurons (hR) of drugs tested in ALS clinical trials (ALS patient iMNs) |
| --- | --- | --- | --- | --- |
| Cc1cccc(/C=N/Nc2cc(N3CCOCC3)nc(OCCc3ccccn3)n2)c1 [Apilimod] | No significance difference | among the most potent | significant beneficial effect |  |
| CC1=NN(c2ccccc2)C(=O)C1 [edaravone] |  |  |  | do best |
| Nc1nc2ccc(OC(F)(F)F)cc2s1 [riluzole] |  |  |  | do best |

Reference: patent publication US20250377351A1, “METHOD FOR IDENTIFYING EFFECTIVE TREATMENTS AGAINST NEURODEGENERATIVE DISORDERS” (AcuraStem Incorporated, priority 2018, published 2025)
